Source: US20240376108A1, “SALT AND CRYSTAL FORM OF PYRAZOLE-CONTAINING POLYCYCLIC DERIVATIVE, AND PREPARATION METHOD THEREFOR AND USE THEREOF” (Shanghai Hansoh Biomedical Co., Ltd., priority 2021, published 2024)

What was measured:
[1] = Pharmacokinetic assay of the salt forms in rats (10 mg/kg); assay type: in vivo; settings: SD rats
Method: 2.3 Pharmacokinetic assay of the methanesulfonate in rats
2.3.1. Study objective: SD rats were used as test animals. The pharmacokinetic behavior of various salt forms of 2-(2-cyano-5-oxo-8-(trifluoromethyl)pyrazolo[1,5-a]pyrido[3,2-e]pyrimidin-4(5H)-yl)-N-(5-fluoropyridin-2-yl)acetamide was studied in rat body (plasma) by orally administration at a dose of 10 mg/kg.
2.3.2.4 Administration: After an overnight fast, male SD rats (3 rats per group) were administered p.o. with the test compound at a dose of 10 mg/kg and a volume of 10 mL/kg.
2.3.2.5 Sample collection: 0.2 mL of blood was taken from the jugular vein of the rat before administration and at 0, 0.5, 1, 2, 4, 6, 8 and 24 hours after administration. The samples were stored in EDTA-K2 tubes, and centrifuged for 6 minutes at 4° C., 6000 rpm to separate the plasma. The plasma samples were stored at −80° C.
1) 160 μL of acetonitrile was added to 40 μL of the plasma sample for precipitation, and then the mixture was centrifuged at 3500×g for 5 to 20 minutes.
2) After the above process, 100 μL of the supernatant was taken to analyze the concentration of the test compound by LC/MS/MS.
2.3.2.7 Liquid chromatography analysis • Liquid chromatography condition: Shimadzu LC-20AD pump • Mass spectrometry condition: AB Sciex API 4000 mass spectrometer • Chromatographic column: phenomenex Gemiu 5 um C18 50×4.6 mm • Mobile phase: Eluent A was 0.1% formic acid in water, and Eluent B was acetonitrile • Flow rate: 0.8 mL/min • Elution time: 0-4.0 minutes, the eluent is as follows:
The main parameters of pharmacokinetics were calculated by WinNonlin 8.2.

[2] = Hygroscopicity experiment (DVS); assay type: physicochemical; settings: 25° C.
From the text: 7.1 Hygroscopicity experiment of crystal forms of different salts of compound 2-(2-cyano-5-oxo-8-(trifluoromethyl)pyrazolo[1,5-a]pyrido[3,2-e]pyrimidin-4(5H)-yl)-N-(5-fluoropyridin-2-yl)acetamide
7.1.1 Experimental objective: To investigate the hygroscopicity of crystal forms of different salts of compound 2-(2-cyano-5-oxo-8-(trifluoromethyl)pyrazolo[1,5-a]pyrido[3,2-e]pyrimidin-4(5H)-yl)-N-(5-fluoropyridin-2-yl)acetamide at different relative humidity, so as to provide a basis for storage.
7.1.2 Experimental protocol: Crystal forms of different salts of the compound were placed in saturated water vapor with different relative humidity to achieve dynamic equilibrium between the compound and water vapor, and the percentage of hygroscopic weight gain of the compound after equilibrium was calculated.

[3] = Cycle 1, target relative humidity 40.0%
[4] = Cycle 1, target relative humidity 50.0%
[5] = Cycle 1, target relative humidity 60.0%
[6] = Cycle 1, target relative humidity 70.0%
[7] = Cycle 1, target relative humidity 80.0%
[8] = Cycle 1, target relative humidity 90.0%
[9] = Cycle 1, target relative humidity 95.0%
[10] = Cycle 2, target relative humidity 0.0%
[11] = Cycle 2, target relative humidity 10.0%
[12] = Cycle 2, target relative humidity 20.0%
[13] = Cycle 2, target relative humidity 30.0%
[14] = Cycle 2, target relative humidity 40.0%

Br.N#Cc1cc2n(CC(=O)Nc3ccc(F)cn3)c(=O)c3ccc(C(F)(F)F)nc3n2n1 [Hydrobromide (crystal form B), 2-(2-cyano-5-oxo-8-(trifluoromethyl)pyrazolo[1,5-a]pyrido[3,2-e]pyrimidin-4(5H)-yl)-N-(5-fluoropyridin-2-yl)acetamide hydrobromide]
exposure AUC and maximum plasma concentration Cmax compared with the free base ([1]; 10 mg/kg): superior
AUC(0-t) ([1]; male, rat, po, p.o. 10 mg/kg, plasma, vehicle 0.5% HPMC, read-out: Area under curve AUC0-t): 16800 ng·h/mL
MRT inf ([1]; male, rat, po, p.o. 10 mg/kg, plasma, vehicle 0.5% HPMC, read-out: Average residence time MRT0-∞): 4.4 h
half-life ([1]; male, rat, po, p.o. 10 mg/kg, plasma, vehicle 0.5% HPMC, read-out: Half life t1/2 (converted)): 156 min
Tmax ([1]; male, rat, po, p.o. 10 mg/kg, plasma, vehicle 0.5% HPMC, read-out: Peak time tmax): 1 h
Cmax ([1]; male, rat, po, p.o. 10 mg/kg, plasma, vehicle 0.5% HPMC, read-out: Plasma concentration Cmax): 2470 ng/mL
% percentage of mass change, Desorption [2, 3]: 4.247%
% percentage of mass change, Sorption [2, 3]: 4.140%
% percentage of mass change, Desorption [2, 4]: 4.359%
% percentage of mass change, Sorption [2, 4]: 4.233%
% percentage of mass change, Desorption [2, 5]: 4.448%
% percentage of mass change, Sorption [2, 5]: 4.321%
% percentage of mass change, Desorption [2, 6]: 4.532%
% percentage of mass change, Sorption [2, 6]: 4.415%
% percentage of mass change, Desorption [2, 7]: 4.627%
% percentage of mass change, Sorption [2, 7]: 4.529%
% percentage of mass change, Desorption [2, 8]: 4.787%
% percentage of mass change, Sorption [2, 8]: 4.715%
% percentage of mass change, Desorption [2, 9]: 4.947%
% percentage of mass change, Sorption [2, 9]: 4.947%
% percentage of mass change, Desorption [2, 10]: −0.019%
% percentage of mass change, Sorption [2, 10]: −0.007%
% percentage of mass change, Desorption [2, 11]: 0.124%
% percentage of mass change, Sorption [2, 11]: 0.070%
% percentage of mass change, Desorption [2, 12]: 0.220%
% percentage of mass change, Sorption [2, 12]: 0.153%
% percentage of mass change, Desorption [2, 13]: 3.962%
% percentage of mass change, Sorption [2, 13]: 3.900%
% percentage of mass change, Desorption [2, 14]: 4.112%
% percentage of mass change, Sorption [2, 14]: 4.030%
